These results are taken from US20230034248A1, “PLANT STOMATA OPENING PROMOTING AGENT” (OAT Agrio Co., Ltd., priority 2019, published 2023).

For the assay, the system named is tomato seedlings. The assay can be described thus: Abscisic acid-induced stomatal closure inhibitory activity, second evaluation (foliar spray, ratio of open stomata). Type of assay: in vivo, tomato (cultivar: Ponderosa). Conditions: for ratio of open stomata as compared to without the addition (student's t-test) / ratio of open stomata as compared to without the addition: 30 μM abscisic acid. On the procedure: (§1) On Jun. 31, 2018, a seedling pot (Bee pot Y-55, manufactured by CANELON C.E) was filled with the culture soil, Kumiai Gardening Seedling Culture Soil AISAI No. 1 (manufactured by Katakura & Co-op Agri Corporation), to be level with the upper side of the pot. Two seeds of tomato (cultivar: Ponderosa) were planted in each pot, and the seedling pot was placed in a climate chamber (25° C., dark period/bright period: 11 h/13 h, bright period: 6:00 a.m. to 19:00 p.m.) at the Cultivation Research Center of OAT Agrio Co., Ltd. Water was supplied from the bottom of the pot, and plants were selected at the time of cotyledon development. At 8:30 a.m. on August 21, chemical solutions each prepared by dissolving 100 ppm of Tween (registered trademark) 80, 30 μM of abscisic acid, and 0 (Comparative Example 12), 100, 300, or 500 μM of steviol were sprayed evenly onto above-ground parts of crops grown to a plant age of about 4 in leaf number. At 11:30 a.m. and 16:00 p.m. on the same day, stomata on the underside of the top leaflet of the second leaf of crops were sampled on a cover glass with an instant adhesive (instant bond for general use AronAlpha (registered trademark) manufactured by TOAGOSEI CO., LTD.) thereon to prepare samples for stomatal observation. These samples were observed under a microscope (magnification 1,000×) to count the number of open or closed stomata in 100 or more stomata, and the ratio of open stomata was calculated according to the following equation:
ratio (%) of open stomata=100×(number of open stomata)/(total number of investigated stomata) (Equation)
The investigations were made in quadruplicate for each treatment condition. A significance test was performed by student's t-test on the ratio of open stomata obtained from the investigation of each individual plant against the ratio of open stomata obtained for the plot without the addition of steviol (0 μm: Comparative Example 12).
as §1, with “Feb. 27,” for “Jun. 31,”, “March 15,” for “August 21,”, “13),” for “12), 100,”, “stevioside” for “steviol”, “3” for “4”, “equation: […]” for “equation:”
The investigations were made in quadruplicate for each treatment condition. A significance test was performed by student's t-test on the ratio of open stomata obtained from the investigation of each individual plant against the ratio of open stomata obtained for the plot without the addition of stevioside (0 μm: Comparative Example 13).
On Mar. […]

[1] abbreviates: 100 μM with 30 μM abscisic acid, sprayed 8:30, Time (11:30).
[2] abbreviates: 300 μM with 30 μM abscisic acid, sprayed 8:30, Time (11:30).
Where [3] appears, read: 500 μM with 30 μM abscisic acid, sprayed 8:30, Time (11:30).
[4] abbreviates: every addition concentration (100, 300, 500 μM) and every investigation time.
The mark [5] stands for this setting: 300 μM with 30 μM abscisic acid, sprayed 8:30, Time (16:00).
Where [6] appears, read: 500 μM with 30 μM abscisic acid, sprayed 8:30, Time (16:00).

Turning to `C=C1C[C@@]23CC[C@H]4[C@@](C)(CCC[C@@]4(C)C(=O)O[C@@H]4O[C@H](CO)[C@@H](O)[C@H](O)[C@H]4O)[C@@H]2CC[C@]1(O[C@@H]1O[C@H](CO)[C@@H](O)[C@H](O[C@@H]2O[C@H](CO)[C@@H](O)[C@H](O)[C@H]2O)[C@H]1O[C@@H]1O[C@H](CO)[C@@H](O)[C@H](O)[C@H]1O)C3` [rebaudioside A], the “Ratio (%) of Open Stomata” value runs as follows: under setting [1], 56.6 ± 5.8%; (100 μM with 30 μM abscisic acid, sprayed 8:30, Time (16:30)) 50.0 ± 3.2%; under setting [2], 58.6 ± 4.6%; (300 μM with 30 μM abscisic acid, sprayed 8:30, Time (16:30)) 51.2 ± 2.1%; under setting [3], 56.5 ± 3.8%; (500 μM with 30 μM abscisic acid, sprayed 8:30, Time (16:30)) 54.0 ± 6.6%. In addition, the “ratio of open stomata as compared to without the addition (student's t-test)” value (300 and 500 μM) was “statistically significant improvement in the ratio of open stomata”. Further, the “ratio of open stomata as compared to without the addition” value under setting [4] is “an improvement in the ratio of open stomata”.

For the compound `C=C1C[C@@]23CC[C@H]4[C@@](C)(CCC[C@@]4(C)C(=O)O)[C@@H]2CC[C@]1(O)C3` [steviol], the “Ratio (%) of Open Stomata” value under setting [1] is on record as 69.0 ± 5.5%; the “Ratio (%) of Open Stomata” value (100 μM with 30 μM abscisic acid, sprayed 8:30, Time (16:00)) is listed as 69.3 ± 3.5%; the “Ratio (%) of Open Stomata” value under setting [2] was 62.7 ± 2.5%; the “Ratio (%) of Open Stomata” value under setting [5] was determined as 61.9 ± 4.6%; the “Ratio (%) of Open Stomata” value under setting [3] was determined as 60.1 ± 7.5%; the “Ratio (%) of Open Stomata” value under setting [6] worked out at 62.5 ± 6.8%. Also, the “ratio of open stomata as compared to without the addition (student's t-test)” value under setting [4] was “statistically significant improvement in the ratio of open stomata”.

Regarding `C=C1C[C@@]23CC[C@H]4[C@@](C)(CCC[C@@]4(C)C(=O)O[C@@H]4O[C@H](CO)[C@@H](O)[C@H](O)[C@H]4O)[C@@H]2CC[C@]1(O[C@@H]1O[C@H](CO)[C@@H](O)[C@H](O)[C@H]1O[C@@H]1O[C@H](CO)[C@@H](O)[C@H](O)[C@H]1O)C3` [stevioside], the “Ratio (%) of Open Stomata” value is recorded as 65.1 ± 6.4% under setting [2], 58.0 ± 4.2% under setting [5], 45.7 ± 2.7% under setting [3] and 54.6 ± 3.8% under setting [6]. Moreover, under “addition concentrations and investigation times other than 500 μM at 11:30 a.m.”, the “ratio of open stomata as compared to without the addition (student's t-test)” value is “statistically significant improvement in the ratio of open stomata”. Moreover, the “ratio of open stomata as compared to without the addition” value (every addition concentration (300, 500 μM) and every investigation time) is “an improvement in the ratio of open stomata”.
